Experimental data as given in patent publication US20140128357A1, “METHODS OF PRODUCING AND USING BRASSINOSTEROIDS TO PROMOTE GROWTH, REPAIR AND MAINTENANCE OF SKELETAL MUSCLE AND SKIN” (Rutgers University, priority 2010, published 2014).
Marks after values point to notes of the source that are not given here.

Legend:
3T3 mouse fibroblasts = assay: Cell proliferation, BrdU assay; type: cell-based; conditions: 24 h
Method: 3T3 fibroblasts were seeded in a 96-well flat bottom plate at a density of 1×10^4 cells/well. Cell viability was measured by an MTT (3-(4,5-Dimethylthiazol-2-yl)-2,5-diphenyltetrazolium bromide) assay in triplicate (0.3-30 μM of test substance for […]) essentially as described by Mosmann (J. Immunol. Methods 65, 55-63, 1983) and quantified spectrophotometrically at 550 nm using a microplate reader (Molecular Devices, Sunnyvale, Calif.). […] For cell proliferation studies, cells were treated in triplicate with 0.1-10 μM of test substance for 24 h and assayed using a BrdU (5-bromo-2′-deoxyuridine) kit from Amersham (Uppsala, Sweden).

[1] = test system: cutaneous wound in C57BL/6J mice; assay: Mouse cutaneous injury model of wound healing; type: in vivo
Method: Under volatile anesthesia (5% isoflurane to effect), the shoulder and back region of each animal was shaved. A sharp punch (ID 6 mm) over their lumbar spine was applied to remove the skin, including panniculus carnosus and adherent tissues. Test substances were administered topically (TOP), immediately following cutaneous injury, once daily for 10 consecutive days. […] Wounds were traced onto clear plastic sheets and were measured by use of an ImageJ program (rsbweb.nih.gov/ij/), online from the National Institutes of Health (NIH). ImageJ is a public domain, Java-based image processing program developed at the NIH. Time to wound closure was estimated by comparing the area of the wound undergoing treatment to the areas of the wound undergoing control treatments. The percent closure of the wound (%) was calculated, and wound half-closure time (the time at which 50% of the cutaneous wound is closed, CT50) was analyzed by linear regression using Graph-Prism (Graph Software USA). At the end of experiment (10 days after the induction of the wound), animals were euthanized by CO2 gas inhalation. Blood was collected by heart puncture. Wound tissue and muscle were collected for immunohistochemical analyses and wound healing factor assays. HB increased the percent of wound closure in vivo in a mouse model of wound closure (FIG. 13). […] Twenty seven six-week-old male C57BL/6J mice, obtained from the Jackson Laboratory (Bar Harbor, Me.), were housed in individual chambers in a room maintained at a constant temperature with 12 h light-dark cycle. Mice had free access to food and water. Mice were allowed to adapt to new conditions for seven days and handling the mice was performed daily during this time to reduce the stress of physical manipulation. Mice were randomized into groups (n=9) according to body weight one day prior to dosing. Under volatile anesthesia (5% isoflurane to effect), the shoulder and back region of each animal was shaved. A sharp punch (ID 6 mm) over lumbar spine was applied to remove the skin including panniculus carnosus and adherent tissues. […] Pharmacol. 77: 1117-1124, 2009) as a positive control) was administered topically, immediately following cutaneous injury, and then daily for 10 days. To investigate the kinetics of wound healing, wound size was photographed and measured every two days with ImageJ software (rsbweb.nih.gov/ij/). […] The percent closure of the wound (%) was calculated, and time at which 50% of the cutaneous wound was closed (CT50) was analyzed by linear regression. […] Wound sizes were photographed and measured every 2 days for 10 days. Wound closure (%) relative to day 1 was determined every 2 days, and CT50 was calculated by linear regression. […]

[2] = test system: elastin mRNA in human neonatal dermal fibroblasts (HNDF); assay: Elastin gene expression in human dermal fibroblasts, qPCR; type: cell-based; conditions: 16 h
Method: Human neonatal dermal fibroblasts (HNDF) were maintained in DMEM+10% FBS and were kept in a humidified 37° C. incubator with 5% CO2. Cells were plated at a density of 1×10^4 cells per well in a 24-well plate and incubated for 24 h, or until 100% confluency was reached. Subsequently, the media was removed and cells were washed with 500 μL PBS twice to remove detached cells or cell debris. HNDF were then treated for 16 h as follows: DMEM only, retinoic Acid 5 μM, retinoic acid 10 μM, Homocastasterone 5 μM and Homocastasterone 10 μM.
RNA was extracted from HNDF using Trizol reagent (Invitrogen) following manufacturer instructions. RNA was quantified spectrophotometrically by absorbance measurements at 260 nm and 280 nm using the NanoDrop system (NanoDrop Technologies, Wilmington, Del.). Quality of RNA was assessed by separation in gel-electrophoresis. To remove any traces of DNA contamination, RNA was then treated with Dnase I (Invitrogen) following the manufacturer guidelines. Complementary DNAs (cDNAs) were synthesized using 3.0 μg of RNA for each sample using Applied Biosystems High Capacity cDNA Reverse Transcription Kit following the manufacturer's protocol.
Quantitative RT-PCR (qPCR) amplifications were carried out in triplicate on an ABI 7300 Real-Time Detection System in a total volume of 25 μl containing 12.5 μl Brilliant SYBR® Green PCR master mix (Applied Biosystems), 5 μl of the 1:25 diluted cDNA, 0.5 μl of 6 μM gene-specific primers (IDT, Coralville, Iowa) and […] PCR-grade water. Primers were synthesized by Integrated DNA Technologies, Inc. (Coralville, Iowa, USA) as follows: β-actin, forward primer 5′-ACGTTGCTATCCAGGCTGTGCTAT-3′ (SEQ ID NO: 1), reverse primer 5′-CTCGGTGAGGATCTTCATGAGGTAGT-3′ (SEQ ID NO: 2); elastin, forward primer 5′-AAGCAGCAGCAAAGTTCGGT-3′ (SEQ ID NO: 3), and reverse primer 5′-ACTAAGCCTGCAGCAGCTCCATA-3′ (SEQ ID NO: 4). qPCR amplifications were performed on the 7300 Real Time PCR System (A&B Applied Biosystems) using 1 cycle at 50° C. for 2 min, 1 cycle at 95° C. for 10 min, followed by 40 cycles of 15 s at 95° C. and 1 min at 60° C. The dissociation curve was completed with one cycle of 15 s at 95° C., 1 min at 60° C., and 15 s of 95° C. No RT (NRT) and no template control (NTC) were included in each experiment as quality control steps. Target mRNA expression was analyzed using the ΔΔCt method and normalized with respect to the expression of the β-actin housekeeping gene. Cells treated with DMEM only (negative control) served as the calibrator sample in this study, and a value of 1.0 was assigned to the target gene expression of the calibrator sample. All samples were run in triplicate. A p value of 0.001 was considered to be significant.

[3] = 10 μg/mouse/day topically for 10 days

Compound: CC[C@@H](C(C)C)[C@H](O)[C@@H](O)[C@@H](C)[C@H]1CC[C@H]2[C@@H]3COC(=O)[C@H]4C[C@H](O)[C@H](O)C[C@]4(C)[C@H]3CC[C@]12C [Compound 1, (22S,23S,24S)-2α,3α,22,23-tetrahydroxy-24 ethyl-β-homo-7-oxo-5α-cholestane-6-one]
- Cell proliferation at 5 μM, % of control (3T3 mouse fibroblasts): 37.7 ± 3.4 %
- CT50, time at which 50% of the cutaneous wound is closed [1, 3]: 5.4 ± 0.3 days
- cutaneous wound healing compared with vehicle [1, 3]: significantly improved
- increase in speed of wound closure relative to control mice ([1]; 10 μg/mouse/day topically, percent of original wound size): 2 fold

Compound: CC[C@@H](C(C)C)[C@H](O)[C@@H](O)[C@@H](C)[C@H]1CC[C@H]2[C@@H]3CC(=O)[C@H]4C[C@H](O)[C@H](O)C[C@]4(C)[C@H]3CC[C@]12C [Compound 2, (22S,23S,24S)-2α,3α, 22,23-tetrahydroxy-24-ethyl-5α-cholestan-6-one]
- Increase in elastin mRNA levels (-fold over control) ([2]; 5 μM): 1.7 fold
- Increase in elastin mRNA levels (-fold over control) ([2]; 10 μM, listed as Homocastasterone): 3.2** fold
- Increase in elastin mRNA levels (-fold over control) ([2]; 10 μM, listed as homocastasterone): up to 3.23±0.4 fold
